# Patent publication US20080139842A1, “Medicament for preventive and/or therapeutic treatment of diseases with secretory disorder” (R&R INC., priority 2006, published 2008)
# What was measured:
# Format in all cases: in vivo, female NOD/Shi Jic mice
# [1] = test system: NOD mice (spontaneous type I diabetes model); assay: Evaluation in NOD mice: weekly urinalysis for urinary sugar (diabetes onset); conditions: 1 mg/kg mixed in feed over 19 weeks from 6 weeks of age, N = 6, positive = urinary glucose 2,000 mg/dl or higher, control group 2/6
# Source text: (§1) NOD mice have been used as spontaneous type I diabetes and Sjoegren's syndrome model animals. Lymphocyte infiltration lesions similar to those of type I diabetes are developed in the pancreatic islets of Langerhans, and lymphocyte infiltration lesions similar to those of Sjoegren's syndrome are developed in the salivary glands (Eur. J. Immunol., 28, pp. 3336-3345, 1998). To female NOD/Shi Jic mice at 6 weeks of age, tamibarotene (Am80, 4-[(5,6,7,8-tetrahydro-5,5,8,8-tetramethyl-2-naphthalenyl)carbamoyl]benzoic acid) was administered over 19 weeks by mixing it in feed. During the test period, urinalysis was conducted once every week to measure urinary sugar. Test paper for urinalyses, Pre Test 3aII (Wako Pure Chemical Industries), was immersed in mouse fresh urine, and when a determined glucose value was 2,000 mg/dl or higher, the mouse was judged to be with diabetes. When the mice gave a sign of physical agony, they were euthanized. After the end of the administration period, pancreases and submaxillary glands were extracted from the euthanized mice, and fixed by immersion in a neutrally buffered 10% formalin fixation solution. From the fixed pancreases and submaxillary glands, hematoxin-eosin stained histopathological specimens were prepared, and the influence of tamibarotene on the pancreases and salivary glands was histopathologically evaluated. […]
# [2] = test system: pancreatic islets of Langerhans of NOD mice; assay: Evaluation in NOD mice: histopathological evaluation of pancreases (islets of Langerhans); conditions: 1 mg/kg mixed in feed over 19 weeks, N = 6; for Pancreatic La islet lymphocyte infiltration score (average): score 0 no lesion, 1 slight, 2 moderate, 3 severe, control group 2.7
# Source text: NOD mice have been used as spontaneous type I diabetes and Sjoegren's syndrome model animals. Lymphocyte infiltration lesions similar to those of type I diabetes are developed in the pancreatic islets of Langerhans, and lymphocyte infiltration lesions similar to those of Sjoegren's syndrome are developed in the salivary glands (Eur. J. Immunol., 28, pp. 3336-3345, 1998). To female NOD/Shi Jic mice at 6 weeks of age, tamibarotene (Am80, 4-[(5,6,7,8-tetrahydro-5,5,8,8-tetramethyl-2-naphthalenyl)carbamoyl]benzoic acid) was administered over 19 weeks by mixing it in feed. During the test period, urinalysis was conducted once every week to measure urinary sugar. Test paper for urinalyses, Pre Test 3aII (Wako Pure Chemical Industries), was immersed in mouse fresh urine, and when a determined glucose value was 2,000 mg/dl or higher, the mouse was judged to be with diabetes. When the mice gave a sign of physical agony, they were euthanized. After the end of the administration period, pancreases and submaxillary glands were extracted from the euthanized mice, and fixed by immersion in a neutrally buffered 10% formalin fixation solution. From the fixed pancreases and submaxillary glands, hematoxin-eosin stained histopathological specimens were prepared, and the influence of tamibarotene on the pancreases and salivary glands was histopathologically evaluated. For each of the tamibarotene-administered group and the control group, 6 mice were used.
# The results are indicated by numbers of urinary sugar positive mice, scores for destruction of the pancreatic islets of Langerhans (henceforth occasionally abbreviated as “Pancreatic La islet”) associated with lymphocyte infiltration (Pancreatic La islet lymphocyte infiltration score), scores for decrease in number of the pancreatic islets of Langerhans (Pancreatic La islet number score), and submaxillary gland lymphocyte infiltration scores. The scores were determined according to the following criteria.
# 0: No lesion was observed
# [3] = test system: submaxillary glands of NOD mice; assay: Evaluation in NOD mice: histopathological evaluation of submaxillary glands (Sjoegren's syndrome model); conditions: 1 mg/kg mixed in feed over 19 weeks, N = 6, score 0 no lesion to 3 severe, control group 1.7
# Source text: as §1
smiles,measurement,setting,value
"CC1(C)CCC(C)(C)c2cc(NC(=O)c3ccc(C(=O)O)cc3)ccc21 [Tamibarotene, 4-[(5,6,7,8-tetrahydro-5,5,8,8-tetramethyl-2-naphthalenyl)carbamoyl]benzoic acid]",Urinary sugar positive mice,[1],0/6
same,Urinary sugar positive mice,[1]; listed as tamibarotene,no urinary sugar positive mouse was observed
same,Pancreatic La islet lymphocyte infiltration score (average),[2],1.7
same,Pancreatic La islet lymphocyte infiltration score (average),[2]; listed as tamibarotene,apparently reduced
same,Pancreatic La islet number score (average),"[2]; score for decrease in number of islets, score 0 no lesion to 3 severe, control group 1",0
same,Submaxillary gland lymphocyte infiltration score (average),[3],0.8
same,Submaxillary gland lymphocyte infiltration score (average),[3]; listed as tamibarotene,reduced
